Consider 1 compound from patent publication US5100591A, “Process for preparing lipid microparticles” (Medgenix Group S.A., priority 1989, dated 1992).

Structures are written as SMILES. In brackets after ≈: the same amount, converted by molar mass.

Data set [1] can be described thus: Stability of amphotericin B solutions by HPLC analysis. The following applies: for Stability in methanol solution in acid medium: topical grade.
Procedure: The stability of the amphotericin B solutions was recorded by HPLC analysis using a reversed-phase column (C18 Bondapak, 25×0.5 cm, Waters Associates). A CH3 CN/10 mM acetate buffer, pH 7, system (39:61) was used as eluent. UV recording was performed at 404 and 362 nm. The flow rate was 2 ml/min. The retention time (RT) of amphotericin B is 9.5 minutes. Results were expressed as the percentage of the peak area.
The conditions of data set [2]: acetic acid and ammonia NH3 in methanol, two equivalents, 5 mg/ml in CH3OH.

The solubility is how much of the substance goes into solution per volume. For the compound `C[C@@H]1[C@H](O)[C@@H](C)/C=C/C=C/C=C/C=C/C=C/C=C/C=C/[C@H](O[C@@H]2O[C@H](C)[C@@H](O)[C@H](N)[C@@H]2O)C[C@@H]2O[C@](O)(C[C@@H](O)C[C@@H](O)[C@H](O)CC[C@@H](O)C[C@@H](O)CC(=O)O[C@H]1C)C[C@H](O)[C@H]2C(=O)O` [amphotericin B], in data set [1] (0.1 mg/ml, 4° C.), the “Stability of neutral CH3OH solution” value is listed as “stable for several days”. In addition, the “Effect of neutralization with methanolic HCl on stability” value in data set [1] (basic CH3OH solution) is “no effect on the stability”. The “Effect of addition of an excess of NaOH on stability” value in data set [1] (excess of NaOH, methanolic solution) is recorded as “does not affect the stability”. In addition, the “Degradation in an acid medium” value in data set [1] (i.v. grade, methanol, one equivalent HCl, concentration greater than 2 mg/ml) is “increases greatly”. The “Stability in methanolic NaOH solution” value in data set [1] (i.v. grade, one equivalent NaOH, up to 5 mg/ml) is “good stability”. Also, the “Stability in methanol solution in acid medium” value in data set [1] (0.1 mg/ml, 1.5 eq. HCl) was “stable”; in data set [1] (5 mg/ml, acid medium (HCl)), “degraded”. In addition, the solubility was 5000 µg/mL in “physchem” (ch3oh + 1.0 eq. hcl, organic solvent or mixture, Solubility of i.v. grade amphotericin B); 5000 µg/mL in “physchem” (ch3oh + 1.0 eq. naoh, organic solvent or mixture, Solubility of i.v. grade amphotericin B); 5000 µg/mL in “physchem” (ch3oh + 1.5 eq. hcl, organic solvent or mixture, Solubility of topical grade amphotericin B); 5000 µg/mL in “physchem” (ch3oh + 1.5 eq. naoh, organic solvent or mixture, Solubility of topical grade amphotericin B); 3000 to 5000 µg/mL (≈ 3250 to 5410 µM) in “physchem” (ch3oh, acid, organic solvent or mixture, Solubility of amphotericin B); 2000 to 3000 µg/mL (≈ 2160 to 3250 µM) in the data set “physchem” (ch3oh, basic, organic solvent or mixture, Solubility of amphotericin B). Moreover, the solubility in “physchem” (ch3oh, neutral, organic solvent or mixture, Solubility of amphotericin B) is 200 to 400 µg/mL (≈ 216 to 433 µM); in “physchem” (ch3oh, organic solvent or mixture, Solubility of i.v. grade amphotericin B) it was 150 µg/mL (≈ 162 µM); in “physchem” (ch3oh, organic solvent or mixture, Solubility of topical grade amphotericin B), 130 µg/mL (≈ 141 µM); in the data set “physchem” (dimethylacetamide, organic solvent or mixture, Solubility of amphotericin B in DMA), 6000 µg/mL (≈ 6490 µM); in the data set “physchem” (dimethylformamide, acid, organic solvent or mixture, Solubility of amphotericin B), 60000 to 80000 µg/mL (≈ 64900 to 86600 µM); in the data set “physchem” (dimethylformamide, neutral, organic solvent or mixture, Solubility of amphotericin B), 2000 to 4000 µg/mL (≈ 2160 to 4330 µM). In addition, the solubility in “physchem” (h2o, acid, Solubility of amphotericin B) is 100 µg/mL (≈ 108 µM); in “physchem” (h2o, basic, Solubility of amphotericin B) it was 100 µg/mL (≈ 108 µM). Also, the “Dissolution of amphotericin B” value in data set [2] is “do not dissolve”.
